Source: ChEMBL document CHEMBL4033685, “C21-steroidal pregnane sapogenins and their derivatives as anti-inflammatory agents” (Bioorg Med Chem, 2017)
Active and inactive are the calls of the source. No cut-off for these calls is given here.

Experiments:
THP-1 [1] = experiment: Effect on RelB protein expression in human THP1 cells at 10 uM after 3 hrs by Western blot analysis; type: functional, cell-based
Toll-like receptor 4 [2] = molecular target: T1, Toll-like receptor 4 (Homo sapiens, UniProt O00206); experiment: Antagonist activity at TLR4 (unknown origin) expressed in human AD293 cells assessed as inhibition of LPS/ATP-stimulated TLR4/NF-kB signaling pathway after 16 hrs by luciferase reporter gene assay; type: cell-based
Homo sapiens = organism: Homo sapiens; experiment: Inhibition of TNFalpha-stimulated NF-kB signaling pathway (unknown origin) expressed in human AD293 cells after 4 hrs by luciferase reporter gene assay; type: cell-based
AD293 [3] = experiment: Cytotoxicity against human AD293 cells assessed as reduction in cell viability after 24 hrs by methylene blue dye based spectrophotometric method; details: ad293, 24 h
Toll-like receptor 4 [4] = molecular target: T1, Toll-like receptor 4; experiment: Antagonist activity at TLR4 in human THP1 cells assessed as inhibition of LPS-stimulated IL-6 mRNA level at 10 uM after 16 hrs by RT-PCR method; type: cell-based
Toll-like receptor 4 [5] = molecular target: T1, Toll-like receptor 4; experiment: Antagonist activity at TLR4 in human THP1 cells assessed as inhibition of LPS-stimulated RANTES mRNA level at 10 uM after 16 hrs by RT-PCR method; type: cell-based
[6] = molecular target: Toll-like receptor 3 (Homo sapiens) (UniProt O15455); experiment: Antagonist activity at TLR3 in human THP1 cells assessed as inhibition of poly IC-stimulated IL-6 mRNA level at 10 uM after 16 hrs by RT-PCR method; type: cell-based
[7] = molecular target: Toll-like receptor 3 (Homo sapiens) (UniProt O15455); experiment: Antagonist activity at TLR3 in human THP1 cells assessed as inhibition of poly IC-stimulated RANTES mRNA level at 10 uM after 16 hrs by RT-PCR method; type: cell-based
[8] = molecular target: Toll-like receptor 2 (Homo sapiens) (UniProt O60603); experiment: Antagonist activity at TLR2 in human THP1 cells assessed as inhibition of PGN-stimulated IL-6 mRNA level at 10 uM after 16 hrs by RT-PCR method; type: cell-based
[9] = molecular target: Toll-like receptor 2 (Homo sapiens) (UniProt O60603); experiment: Antagonist activity at TLR2 in human THP1 cells assessed as inhibition of PGN-stimulated RANTES mRNA level at 10 uM after 16 hrs by RT-PCR method; type: cell-based
Toll-like receptor 4 [10] = molecular target: T1, Toll-like receptor 4; experiment: Antagonist activity at TLR4 in human THP1 cells assessed as inhibition of LPS-stimulated IL-1beta level at 10 uM by bead based immunoassay; type: cell-based
Toll-like receptor 4 [11] = molecular target: T1, Toll-like receptor 4; experiment: Antagonist activity at TLR4 in human THP1 cells assessed as inhibition of LPS-stimulated TNFalpha level at 10 uM by bead based immunoassay; type: cell-based
Toll-like receptor 4 [12] = molecular target: T1, Toll-like receptor 4; experiment: Antagonist activity at TLR4 in human THP1 cells assessed as inhibition of LPS-stimulated IL-6 level at 10 uM by bead based immunoassay; type: cell-based
[13] = molecular target: Toll-like receptor 3 (Homo sapiens) (UniProt O15455); experiment: Antagonist activity at TLR3 in human THP1 cells assessed as inhibition of poly IC-stimulated IL-1beta level at 10 uM by bead based immunoassay; type: cell-based
[14] = molecular target: Toll-like receptor 3 (Homo sapiens) (UniProt O15455); experiment: Antagonist activity at TLR3 in human THP1 cells assessed as inhibition of poly IC-stimulated TNFalpha level at 10 uM by bead based immunoassay; type: cell-based
[15] = molecular target: Toll-like receptor 2 (Homo sapiens) (UniProt O60603); experiment: Antagonist activity at TLR2 in human THP1 cells assessed as inhibition of PGN-stimulated IL-1beta level at 10 uM by bead based immunoassay; type: cell-based
[16] = molecular target: Toll-like receptor 2 (Homo sapiens) (UniProt O60603); experiment: Antagonist activity at TLR2 in human THP1 cells assessed as inhibition of PGN-stimulated TNFalpha level at 10 uM by bead based immunoassay; type: cell-based
[17] = molecular target: Transcription factor p65 (Homo sapiens) (UniProt Q04206); experiment: Inhibition of TNFalpha-stimulated NF-kB p65 activation (unknown origin) expressed in human AD293 cells assessed as nuclear translocation of p65 at 10 uM after 3 hrs by confocal microscopic method; type: cell-based
[18] = molecular target: Transcription factor p65 (Homo sapiens) (UniProt Q04206); experiment: Inhibition of TNFalpha-stimulated NF-kB p65 phosphorylation (unknown origin) expressed in human AD293 cells at 10 uM after 3 hrs by Western blot analysis; type: cell-based
[19] = molecular target: T2, NF-kappa-B inhibitor alpha (Homo sapiens) (UniProt P25963); experiment: Inhibition of TNFalpha-stimulated IkBalpha phosphorylation in human AD293 cells at 10 uM after 3 hrs by Western blot analysis; type: cell-based
T2 sequence (whole entry): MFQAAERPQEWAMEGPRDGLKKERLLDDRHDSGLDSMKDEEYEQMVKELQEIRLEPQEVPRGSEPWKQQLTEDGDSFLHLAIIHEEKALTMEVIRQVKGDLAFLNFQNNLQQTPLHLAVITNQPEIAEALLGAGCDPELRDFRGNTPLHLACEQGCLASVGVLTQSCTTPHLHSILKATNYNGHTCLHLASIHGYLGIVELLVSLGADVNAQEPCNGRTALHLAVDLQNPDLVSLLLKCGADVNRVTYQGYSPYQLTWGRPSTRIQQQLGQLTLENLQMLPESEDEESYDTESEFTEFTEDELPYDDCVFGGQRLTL

AD293 [20] = experiment: Effect on IkBalpha protein expression in TNFalpha-stimulated human AD293 cells at 10 uM after 3 hrs by Western blot analysis; type: functional, cell-based
[21] = molecular target: Transcription factor p65 (Homo sapiens) (UniProt Q04206); experiment: Upregulation of NF-kB p65 phosphorylation (unknown origin) expressed in human AD293 cells at 10 uM after 3 hrs by Western blot analysis; type: cell-based
Toll-like receptor 4 [22] = molecular target: T1, Toll-like receptor 4; experiment: Antagonist activity at TLR4 in human THP1 cells assessed as increase in LPS-stimulated NFkappaB p65 phosphorylation at 10 uM after 3 hrs by Western blot analysis; type: cell-based
THP-1 [23] = experiment: Downregulation of IkBalpha protein expression in LPS-stimulated human THP1 cells at 10 uM after 3 hrs by Western blot analysis; type: functional, cell-based
THP-1 [24] = experiment: Downregulation of IkBalpha protein expression in human THP1 cells at 10 uM after 3 hrs by Western blot analysis; type: functional, cell-based
Toll-like receptor 4 [25] = molecular target: T1, Toll-like receptor 4; experiment: Antagonist activity at TLR4 in human THP1 cells assessed as inhibition of LPS-stimulated NF-kB canonical signaling pathway by measuring decrease in IkBalpha phosphorylation at 10 uM after 3 hrs by Western blot analysis; type: cell-based
THP-1 [26] = experiment: Upregulation of IKKalpha protein expression in LPS-stimulated human THP1 cells at 10 uM after 3 hrs by Western blot analysis; type: functional, cell-based
THP-1 [27] = experiment: Upregulation of IKKalpha protein expression in human THP1 cells at 10 uM after 3 hrs by Western blot analysis; type: functional, cell-based
AD293 [28] = experiment: Upregulation of IKKalpha protein expression in TNFalpha-stimulated human AD293 cells at 10 uM after 3 hrs by Western blot analysis; type: functional, cell-based
AD293 [29] = experiment: Upregulation of IKKalpha protein expression in human AD293 cells at 10 uM after 3 hrs by Western blot analysis; type: functional, cell-based
Toll-like receptor 4 [30] = molecular target: T1, Toll-like receptor 4; experiment: Antagonist activity at TLR4 in human THP1 cells assessed as inhibition of LPS-stimulated NF-kB non-canonical signaling pathway by measuring decrease in RelB expression at 10 uM after 3 hrs by Western blot analysis; type: cell-based
Toll-like receptor 4 [31] = molecular target: T1, Toll-like receptor 4; experiment: Antagonist activity at TLR4 in human THP1 cells harboring human TRAF6 assessed as inhibition of LPS-stimulated IL-1beta level at 10 uM by bead based immunoassay; type: cell-based
Toll-like receptor 4 [32] = molecular target: T1, Toll-like receptor 4; experiment: Antagonist activity at TLR4 in human THP1 cells harboring human TRAF6 assessed as inhibition of LPS-stimulated TNFalpha level at 10 uM by bead based immunoassay; type: cell-based
Toll-like receptor 4 [33] = molecular target: T1, Toll-like receptor 4; experiment: Antagonist activity at TLR4 in human THP1 cells harboring human TRAF6 assessed as inhibition of LPS-stimulated IL-6 level at 10 uM by bead based immunoassay; type: cell-based

Sequence of Toll-like receptor 3 (Homo sapiens) (O15455 whole entry): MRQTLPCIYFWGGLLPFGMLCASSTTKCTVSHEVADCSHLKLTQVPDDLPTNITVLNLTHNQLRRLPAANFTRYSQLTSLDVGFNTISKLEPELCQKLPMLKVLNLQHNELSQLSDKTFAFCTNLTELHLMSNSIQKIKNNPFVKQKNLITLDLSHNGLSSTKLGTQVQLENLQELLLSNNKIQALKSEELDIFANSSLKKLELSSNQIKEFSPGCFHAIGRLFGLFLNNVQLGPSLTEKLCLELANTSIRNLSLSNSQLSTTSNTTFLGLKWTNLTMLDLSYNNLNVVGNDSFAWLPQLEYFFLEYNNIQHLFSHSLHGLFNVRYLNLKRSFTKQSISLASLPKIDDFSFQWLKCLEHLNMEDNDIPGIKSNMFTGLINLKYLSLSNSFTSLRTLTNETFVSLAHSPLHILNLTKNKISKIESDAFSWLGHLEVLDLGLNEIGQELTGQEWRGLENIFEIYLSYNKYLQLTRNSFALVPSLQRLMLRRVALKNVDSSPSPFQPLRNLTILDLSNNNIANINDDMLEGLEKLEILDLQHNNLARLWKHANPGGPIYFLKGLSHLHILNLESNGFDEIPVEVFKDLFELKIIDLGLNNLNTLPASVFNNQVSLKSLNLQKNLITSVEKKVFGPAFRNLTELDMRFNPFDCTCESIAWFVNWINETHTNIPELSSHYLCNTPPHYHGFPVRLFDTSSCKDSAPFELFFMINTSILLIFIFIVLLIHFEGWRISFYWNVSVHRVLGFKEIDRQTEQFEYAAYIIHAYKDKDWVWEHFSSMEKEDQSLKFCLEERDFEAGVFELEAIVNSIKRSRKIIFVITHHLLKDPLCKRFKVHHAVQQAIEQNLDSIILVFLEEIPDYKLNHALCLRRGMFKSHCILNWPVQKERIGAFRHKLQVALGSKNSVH
Sequence of Toll-like receptor 2 (Homo sapiens) (O60603 whole entry): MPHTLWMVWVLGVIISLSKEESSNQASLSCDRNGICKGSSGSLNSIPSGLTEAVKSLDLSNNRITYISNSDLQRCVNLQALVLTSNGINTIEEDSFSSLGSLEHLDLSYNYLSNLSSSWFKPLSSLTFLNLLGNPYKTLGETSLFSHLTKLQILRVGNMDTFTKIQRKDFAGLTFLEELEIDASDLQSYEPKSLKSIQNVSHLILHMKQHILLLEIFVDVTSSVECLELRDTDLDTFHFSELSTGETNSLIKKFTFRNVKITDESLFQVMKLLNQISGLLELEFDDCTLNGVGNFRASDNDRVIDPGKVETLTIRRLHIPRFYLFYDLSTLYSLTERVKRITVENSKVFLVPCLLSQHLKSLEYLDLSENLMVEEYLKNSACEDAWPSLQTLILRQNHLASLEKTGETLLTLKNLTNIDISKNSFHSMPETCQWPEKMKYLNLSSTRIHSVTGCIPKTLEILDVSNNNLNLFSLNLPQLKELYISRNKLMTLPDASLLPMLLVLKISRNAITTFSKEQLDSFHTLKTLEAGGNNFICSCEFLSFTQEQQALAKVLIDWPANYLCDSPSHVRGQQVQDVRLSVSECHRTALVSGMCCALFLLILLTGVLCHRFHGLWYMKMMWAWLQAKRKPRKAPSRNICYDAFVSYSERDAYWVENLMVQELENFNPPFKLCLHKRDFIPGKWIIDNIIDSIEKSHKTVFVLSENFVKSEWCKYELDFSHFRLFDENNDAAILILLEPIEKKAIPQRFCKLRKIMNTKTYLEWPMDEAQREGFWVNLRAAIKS
T1 sequence (O00206 whole entry): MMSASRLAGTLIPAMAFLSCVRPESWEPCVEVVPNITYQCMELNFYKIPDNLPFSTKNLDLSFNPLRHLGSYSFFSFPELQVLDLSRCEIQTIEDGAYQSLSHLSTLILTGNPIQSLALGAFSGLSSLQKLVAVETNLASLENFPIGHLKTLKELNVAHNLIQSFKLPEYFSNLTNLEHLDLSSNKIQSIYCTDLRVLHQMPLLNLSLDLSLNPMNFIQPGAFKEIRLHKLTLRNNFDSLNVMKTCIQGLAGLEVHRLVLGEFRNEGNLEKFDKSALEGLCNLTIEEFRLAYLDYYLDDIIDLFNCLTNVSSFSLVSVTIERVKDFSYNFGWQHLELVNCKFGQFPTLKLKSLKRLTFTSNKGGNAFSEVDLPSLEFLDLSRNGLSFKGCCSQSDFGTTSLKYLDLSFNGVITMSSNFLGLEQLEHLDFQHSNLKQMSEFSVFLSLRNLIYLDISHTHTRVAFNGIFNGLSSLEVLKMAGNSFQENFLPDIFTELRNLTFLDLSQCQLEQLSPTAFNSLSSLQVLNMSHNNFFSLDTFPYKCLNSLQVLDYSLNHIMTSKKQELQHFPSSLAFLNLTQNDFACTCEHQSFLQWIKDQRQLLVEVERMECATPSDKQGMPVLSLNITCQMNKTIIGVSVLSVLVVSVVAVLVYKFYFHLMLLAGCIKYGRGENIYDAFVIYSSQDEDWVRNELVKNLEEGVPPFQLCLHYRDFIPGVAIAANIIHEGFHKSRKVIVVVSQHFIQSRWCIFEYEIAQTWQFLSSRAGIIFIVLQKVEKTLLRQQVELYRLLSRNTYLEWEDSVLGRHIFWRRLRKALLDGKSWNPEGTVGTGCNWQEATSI
Sequence of Transcription factor p65 (Homo sapiens) (Q04206 whole entry): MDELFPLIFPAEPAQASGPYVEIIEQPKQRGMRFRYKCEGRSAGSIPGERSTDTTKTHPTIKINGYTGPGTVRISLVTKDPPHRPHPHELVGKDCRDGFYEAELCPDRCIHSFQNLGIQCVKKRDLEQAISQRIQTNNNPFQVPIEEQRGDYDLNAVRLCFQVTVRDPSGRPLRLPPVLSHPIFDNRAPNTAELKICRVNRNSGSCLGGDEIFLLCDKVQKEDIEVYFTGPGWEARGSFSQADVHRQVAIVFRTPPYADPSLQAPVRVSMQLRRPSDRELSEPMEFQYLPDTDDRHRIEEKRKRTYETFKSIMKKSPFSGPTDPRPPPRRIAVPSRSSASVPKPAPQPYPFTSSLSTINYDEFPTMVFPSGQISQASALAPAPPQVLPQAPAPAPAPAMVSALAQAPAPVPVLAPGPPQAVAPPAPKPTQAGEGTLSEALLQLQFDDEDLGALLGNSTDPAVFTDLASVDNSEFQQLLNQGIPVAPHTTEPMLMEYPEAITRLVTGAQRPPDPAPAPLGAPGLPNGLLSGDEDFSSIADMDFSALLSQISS

## C[C@@H](OC(=O)c1ccccc1O)[C@]1(O)CC[C@@]2(O)[C@]1(C)[C@H](OC(=O)/C=C/c1ccccc1)C[C@@H]1[C@@]3(C)CC[C@H](O)CC3=CC[C@]12O
THP-1 [1]
  Activity: Active
Toll-like receptor 4 [2]
  EC50: 4.9 µM
Homo sapiens
  EC10: > 10 µM
AD293 [3]
  CC10: > 10 µM
Toll-like receptor 4 [4]
  inhibition: Active
Toll-like receptor 4 [5]
  inhibition: Active
[6]
  inhibition: Active
[7]
  inhibition: Active
[8]
  inhibition: Active
[9]
  inhibition: Active
Toll-like receptor 4 [10]
  inhibition: Active
Toll-like receptor 4 [11]
  inhibition: Active
Toll-like receptor 4 [12]
  inhibition: Active
[13]
  inhibition: Active
[14]
  inhibition: Active
[15]
  inhibition: Active
[16]
  inhibition: Active
[17]
  inhibition: inactive
[18]
  inhibition: inactive
[19]
  inhibition: inactive
AD293 [20]
  Activity: inactive
[21]
  Activity: Active
Toll-like receptor 4 [22]
  inhibition: inactive
THP-1 [23]
  Activity: Active
THP-1 [24]
  Activity: Active
Toll-like receptor 4 [25]
  inhibition: inactive
THP-1 [26]
  Activity: Active
THP-1 [27]
  Activity: Active
AD293 [28]
  Activity: Active
AD293 [29]
  Activity: Active
Toll-like receptor 4 [30]
  inhibition: Active
Toll-like receptor 4 [31]
  inhibition: inactive
Toll-like receptor 4 [32]
  inhibition: inactive
Toll-like receptor 4 [33]
  inhibition: inactive
